Laboratory results taken from paper PMC4324968, “High-Affinity Accumulation of a Maytansinoid in Cells via Weak Tubulin Interaction” (PLoS ONE, 2015).

Key:
[1] = biological target: T1, tubulin (αβ-heterodimer, bovine brain; maytansine site on β-tubulin); assay: equilibrium radioligand binding of 3H-S-methyl DM1 to tubulin-loaded liposomes (apparent Kd); parameters: species or system Bos taurus
T1 construct: with α-tubulin (αβ-heterodimer)

[2] = test system: T2, tubulin (microtubule-assembled, in MCF7 cells); assay: 3H-paclitaxel equilibrium binding to MCF7 cells, Scatchard; format: cell-based
T2 construct: endogenous cellular tubulin in MCF7 cells; with αβ-heterodimer in microtubules

SMILES | Kd [1] | Kd [2]
COc1cc2cc(c1Cl)N(C)C(=O)C[C@H](OC(=O)[C@H](C)N(C)C(=O)CCSC)[C@]1(C)O[C@H]1[C@H](C)[C@@H]1C[C@@](O)(NC(=O)O1)[C@H](OC)/C=C/C=C(\C)C2 [S-methyl DM1] | 21.5 ± 0.07 nM | 
CC(=O)O[C@H]1C(=O)[C@@]2(C)[C@H]([C@H](OC(=O)c3ccccc3)[C@]3(O)C[C@H](OC(=O)[C@H](O)[C@@H](NC(=O)c4ccccc4)c4ccccc4)C(C)=C1C3(C)C)[C@]1(OC(C)=O)CO[C@@H]1C[C@@H]2O [paclitaxel] |  | 60 ± 10 nM
